Experimental data published in US20250230193A1, “CYCLIC COMPOUND HAVING SELECTIVE KRAS INHIBITORY EFFECT ON HRAS AND NRAS” (CHUGAI SEIYAKU KABUSHIKI KAISHA, priority 2022, published 2025).
*1 amine or outer side, *2 acyl side, *3 side chain or, on linkers, in order; H or OH if unused. Where a SMILES comes first, the peptide text is derived from it. Bridges are numbered along the chain shown (N, C = ends). [ ]: non-standard residue; d: D form. The star is where a group is joined. hPhe(3,5-F2-4-CF3) = N[C@@H](CCc1cc(F)c(C(F)(F)F)c(F)c1)C(=O)O; NPrPhe(4-CF3) = CCCN[C@@H](Cc1ccc(C(F)(F)F)cc1)C(=O)O; NMeAbu(4,4,4-F3) = CN[C@@H](CC(F)(F)F)C(=O)O; X16 = O=C([C@@H](N[*:1])C1CC(F)(F)C1)[*:2]; NMeGly(cPent) = CN[C@H](C(=O)O)C1CCCC1; Ac4c(3,3-F2) = NC1(C(=O)O)CC(F)(F)C1; X13 = CCC[C@](C)(N[*:1])C(=O)[*:2]; αMeCha = C[C@](N)(CC1CCCCC1)C(=O)O; Nva(3-Et) = CCC(CC)[C@H](N)C(=O)O; αMeF = C[C@](N)(Cc1ccccc1)C(=O)O; NMeD = CN[C@@H](CC(=O)O)C(=O)O; Ac4c(3-oxa) = NC1(C(=O)O)COC1; NMeL = CN[C@@H](CC(C)C)C(=O)O; αMeL = CC(C)C[C@](C)(N)C(=O)O; αMeS = C[C@](N)(CO)C(=O)O; Ac5c = NC1(C(=O)O)CCCC1; Sar = CNCC(=O)O; tBu = CC(C)(C)*; Allyl = C=CC*

Columns and labels:
[1] = molecular target: GDP-bound NRAS wild-type protein (Homo sapiens, UniProt P01111); test: Binding to NRAS by surface plasmon resonance (SPR), Single Cycle Kinetics; settings: KD ratio NRAS/KRAS, SPR
[2] = molecular target: GDP-bound HRAS wild-type protein (Homo sapiens, UniProt P01112); test: Binding to HRAS by surface plasmon resonance (SPR), Single Cycle Kinetics; settings: KD ratio HRAS/KRAS, SPR
Sequence of GDP-bound HRAS wild-type protein (P01112 whole entry): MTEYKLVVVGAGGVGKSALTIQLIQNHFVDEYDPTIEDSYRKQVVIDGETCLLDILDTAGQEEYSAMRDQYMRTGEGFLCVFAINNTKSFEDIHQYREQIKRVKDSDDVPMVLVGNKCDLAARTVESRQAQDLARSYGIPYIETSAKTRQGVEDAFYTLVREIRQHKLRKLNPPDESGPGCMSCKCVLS

Sequence of GDP-bound NRAS wild-type protein (P01111 whole entry): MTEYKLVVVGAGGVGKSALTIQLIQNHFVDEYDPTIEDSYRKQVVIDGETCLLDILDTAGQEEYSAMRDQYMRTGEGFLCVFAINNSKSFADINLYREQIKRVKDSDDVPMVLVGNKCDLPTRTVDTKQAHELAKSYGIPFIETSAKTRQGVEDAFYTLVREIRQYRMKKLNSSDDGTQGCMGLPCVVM

SMILES | NRAS/KRAS (ratio of KD value with respect to GDP-bound NRAS wild-type protein to KD value with respect to KRAS) [1] | HRAS/KRAS (ratio of KD value with respect to GDP-bound HRAS wild-type protein to KD value with respect to KRAS) [2]
CCCN1C(=O)CN(C)C(=O)CN(C)C(=O)[C@H]([C@@H](C)CC)NC(=O)[C@H](CC(C)C)N(C)C(=O)C[C@@H](C(=O)N(C)C)N(C)C(=O)[C@H](C2CCCC2)N(C)C(=O)[C@](C)(CCC)NC(=O)[C@@H]2CCCN2C(=O)[C@H](CCc2cc(F)c(C(F)(F)F)c(F)c2)NC(=O)CN(C)C(=O)[C@@H]1Cc1ccc(C(F)(F)F)cc1 [PP0737] ([NMeL]I[Sar][Sar][NPrPhe(4-CF3)][Sar][hPhe(3,5-F2-4-CF3)]P[X13][NMeGly(cPent)][NMeD]-NMe2; lactam N-11) | B (a compound having 3 or more and less than 10 is denoted as B) | C (A compound having a KD ratio of 0.1 or more and less than 3 is denoted as C)
CCCN1C(=O)CN(C)C(=O)CN(C)C(=O)[C@H]([C@@H](C)CC)NC(=O)[C@H](CC(C)C)N(C)C(=O)C[C@@H](C(=O)N(C)C)N(C)C(=O)[C@H](C2CCCC2)N(C)C(=O)[C@](C)(CC(C)C)NC(=O)[C@@H]2CCCN2C(=O)[C@H](CCc2cc(F)c(C(F)(F)F)c(F)c2)NC(=O)CN(C)C(=O)[C@@H]1Cc1ccc(C(F)(F)F)cc1 [PP0738] ([NMeL]I[Sar][Sar][NPrPhe(4-CF3)][Sar][hPhe(3,5-F2-4-CF3)]P[αMeL][NMeGly(cPent)][NMeD]-NMe2; lactam N-11) | B (a compound having 3 or more and less than 10 is denoted as B) | B (a compound having 3 or more and less than 10 is denoted as B)
CCCN1C(=O)CN(C)C(=O)CN(C)C(=O)[C@H]([C@@H](C)CC)NC(=O)[C@H](CC(C)C)N(C)C(=O)C[C@@H](C(=O)N(C)C)N(C)C(=O)[C@H](C2CCCC2)N(C)C(=O)[C@](C)(CC2CCCCC2)NC(=O)[C@@H]2CCCN2C(=O)[C@H](CCc2cc(F)c(C(F)(F)F)c(F)c2)NC(=O)CN(C)C(=O)[C@@H]1Cc1ccc(C(F)(F)F)cc1 [PP0739] ([NMeL]I[Sar][Sar][NPrPhe(4-CF3)][Sar][hPhe(3,5-F2-4-CF3)]P[αMeCha][NMeGly(cPent)][NMeD]-NMe2; lactam N-11) | B (a compound having 3 or more and less than 10 is denoted as B) | C (A compound having a KD ratio of 0.1 or more and less than 3 is denoted as C)
CCCN1C(=O)CN(C)C(=O)CN(C)C(=O)[C@H]([C@@H](C)CC)NC(=O)[C@H](CC(C)C)N(C)C(=O)C[C@@H](C(=O)N(C)C)N(C)C(=O)[C@H](C2CCCC2)N(C)C(=O)[C@](C)(Cc2ccccc2)NC(=O)[C@@H]2CCCN2C(=O)[C@H](CCc2cc(F)c(C(F)(F)F)c(F)c2)NC(=O)CN(C)C(=O)[C@@H]1Cc1ccc(C(F)(F)F)cc1 [PP0740] ([NMeL]I[Sar][Sar][NPrPhe(4-CF3)][Sar][hPhe(3,5-F2-4-CF3)]P[αMeF][NMeGly(cPent)][NMeD]-NMe2; lactam N-11) | B (a compound having 3 or more and less than 10 is denoted as B) | C (A compound having a KD ratio of 0.1 or more and less than 3 is denoted as C)
CCCN1C(=O)CN(C)C(=O)CN(C)C(=O)[C@H]([C@@H](C)CC)NC(=O)[C@H](CC(C)C)N(C)C(=O)C[C@@H](C(=O)N(C)C)N(C)C(=O)[C@H](C2CCCC2)N(C)C(=O)[C@](C)(COC)NC(=O)[C@@H]2CCCN2C(=O)[C@H](CCc2cc(F)c(C(F)(F)F)c(F)c2)NC(=O)CN(C)C(=O)[C@@H]1Cc1ccc(C(F)(F)F)cc1 [PP0741] ([NMeL]I[Sar][Sar][NPrPhe(4-CF3)][Sar][hPhe(3,5-F2-4-CF3)]P[αMeS](Me)[NMeGly(cPent)][NMeD]-NMe2; lactam N-11) | B (a compound having 3 or more and less than 10 is denoted as B) | B (a compound having 3 or more and less than 10 is denoted as B)
C=CCOC[C@]1(C)NC(=O)[C@@H]2CCCN2C(=O)[C@H](CCc2cc(F)c(C(F)(F)F)c(F)c2)NC(=O)CN(C)C(=O)[C@H](Cc2ccc(C(F)(F)F)cc2)N(CCC)C(=O)CN(C)C(=O)CN(C)C(=O)[C@H]([C@@H](C)CC)NC(=O)[C@H](CC(C)C)N(C)C(=O)C[C@@H](C(=O)N(C)C)N(C)C(=O)[C@H](C2CCCC2)N(C)C1=O [PP0742] ([NMeL]I[Sar][Sar][NPrPhe(4-CF3)][Sar][hPhe(3,5-F2-4-CF3)]P[αMeS](Allyl)[NMeGly(cPent)][NMeD]-NMe2; lactam N-11) | B (a compound having 3 or more and less than 10 is denoted as B) | B (a compound having 3 or more and less than 10 is denoted as B)
CCCN1C(=O)CN(C)C(=O)CN(C)C(=O)[C@H]([C@@H](C)CC)NC(=O)[C@H](CC(C)C)N(C)C(=O)C[C@@H](C(=O)N(C)C)N(C)C(=O)[C@H](C2CCCC2)N(C)C(=O)[C@](C)(COC(C)(C)C)NC(=O)[C@@H]2CCCN2C(=O)[C@H](CCc2cc(F)c(C(F)(F)F)c(F)c2)NC(=O)CN(C)C(=O)[C@@H]1Cc1ccc(C(F)(F)F)cc1 [PP0743] ([NMeL]I[Sar][Sar][NPrPhe(4-CF3)][Sar][hPhe(3,5-F2-4-CF3)]P[αMeS](tBu)[NMeGly(cPent)][NMeD]-NMe2; lactam N-11) | B (a compound having 3 or more and less than 10 is denoted as B) | C (A compound having a KD ratio of 0.1 or more and less than 3 is denoted as C)
CCCN1C(=O)CN(C)C(=O)CN(C)C(=O)[C@H]([C@@H](C)CC)NC(=O)[C@H](CC(C)C)N(C)C(=O)C[C@@H](C(=O)N(C)C)N(C)C(=O)[C@H](C2CCCC2)N(C)C(=O)C2(COC2)NC(=O)[C@@H]2CCCN2C(=O)[C@H](CCc2cc(F)c(C(F)(F)F)c(F)c2)NC(=O)CN(C)C(=O)[C@@H]1Cc1ccc(C(F)(F)F)cc1 [PP0744] ([NMeL]I[Sar][Sar][NPrPhe(4-CF3)][Sar][hPhe(3,5-F2-4-CF3)]P[Ac4c(3-oxa)][NMeGly(cPent)][NMeD]-NMe2; lactam N-11) | B (a compound having 3 or more and less than 10 is denoted as B) | B (a compound having 3 or more and less than 10 is denoted as B)
CCCN1C(=O)CN(C)C(=O)CN(C)C(=O)[C@H]([C@@H](C)CC)NC(=O)[C@H](CC(C)C)N(C)C(=O)C[C@@H](C(=O)N(C)C)N(C)C(=O)[C@H](C2CCCC2)N(C)C(=O)C2(CC(F)(F)C2)NC(=O)[C@@H]2CCCN2C(=O)[C@H](CCc2cc(F)c(C(F)(F)F)c(F)c2)NC(=O)CN(C)C(=O)[C@@H]1Cc1ccc(C(F)(F)F)cc1 [PP0745] ([NMeL]I[Sar][Sar][NPrPhe(4-CF3)][Sar][hPhe(3,5-F2-4-CF3)]P[Ac4c(3,3-F2)][NMeGly(cPent)][NMeD]-NMe2; lactam N-11) | B (a compound having 3 or more and less than 10 is denoted as B) | C (A compound having a KD ratio of 0.1 or more and less than 3 is denoted as C)
CCCN1C(=O)CN(C)C(=O)CN(C)C(=O)[C@H]([C@@H](C)CC)NC(=O)[C@H](CC(C)C)N(C)C(=O)C[C@@H](C(=O)N(C)C)N(C)C(=O)[C@H](CC(F)(F)F)N(C)C(=O)C2(CCCC2)NC(=O)[C@@H]2CCCN2C(=O)[C@H](CCc2cc(F)c(C(F)(F)F)c(F)c2)NC(=O)CN(C)C(=O)[C@@H]1Cc1ccc(C(F)(F)F)cc1 [PP0746] ([NMeL]I[Sar][Sar][NPrPhe(4-CF3)][Sar][hPhe(3,5-F2-4-CF3)]P[Ac5c][NMeAbu(4,4,4-F3)][NMeD]-NMe2; lactam N-11) | B (a compound having 3 or more and less than 10 is denoted as B) | C (A compound having a KD ratio of 0.1 or more and less than 3 is denoted as C)
CCCN1C(=O)CN(C)C(=O)CN(C)C(=O)[C@H](C(CC)CC)NC(=O)[C@H](CC(C)C)N(C)C(=O)C[C@@H](C(=O)N(C)C)N(C)C(=O)[C@H](C2CCCC2)N(C)C(=O)C2(CCCC2)NC(=O)[C@@H]2CCCN2C(=O)[C@H](CCc2cc(F)c(C(F)(F)F)c(F)c2)NC(=O)CN(C)C(=O)[C@@H]1Cc1ccc(C(F)(F)F)cc1 [PP0747] ([NMeL][Nva(3-Et)][Sar][Sar][NPrPhe(4-CF3)][Sar][hPhe(3,5-F2-4-CF3)]P[Ac5c][NMeGly(cPent)][NMeD]-NMe2; lactam N-11) | B (a compound having 3 or more and less than 10 is denoted as B) | C (A compound having a KD ratio of 0.1 or more and less than 3 is denoted as C)
CCCN1C(=O)CN(C)C(=O)CN(C)C(=O)[C@H](C2CC(F)(F)C2)NC(=O)[C@H](CC(C)C)N(C)C(=O)C[C@@H](C(=O)N(C)C)N(C)C(=O)[C@H](C2CCCC2)N(C)C(=O)C2(CCCC2)NC(=O)[C@@H]2CCCN2C(=O)[C@H](CCc2cc(F)c(C(F)(F)F)c(F)c2)NC(=O)CN(C)C(=O)[C@@H]1Cc1ccc(C(F)(F)F)cc1 [PP0748] ([NMeL][X16][Sar][Sar][NPrPhe(4-CF3)][Sar][hPhe(3,5-F2-4-CF3)]P[Ac5c][NMeGly(cPent)][NMeD]-NMe2; lactam N-11) | B (a compound having 3 or more and less than 10 is denoted as B) | B (a compound having 3 or more and less than 10 is denoted as B)
